Reference: patent US8765695B2, “Use of ginsenoside RG1, its metabolites ginsenoside RH1 and/or PPT” (priority 2007, dated 2014)
Marks after values point to notes of the source that are not given here.

How the values were obtained:
male mice = test: Test of sexual ethology: bestriding time and mating frequency of male mice with estral female mice; assay type: in vivo, Kunming mice
Description: Kunming male mice (age 10 weeks, weight body 32-36 g), Kunming female mice (age 10 weeks, weight body 30-34 g), as purchased from Laboratory Animal Center of Chinese Academy of Medical Sciences (with the number of certificate SCXK (Jing) 2005-0004), were placed in a clean grade animal house alternately in light and in darkness (12 h:12 h), while taking water and food freely. The test started after the mice had adapted to the environment in the animal house for 5 days. During the period of adapting to the environment, male mice and female mice were isolated from each other.
In order to correctly reflect the change of male mice in sexual function, we prepared estral female mice by ectomizing their ovaries and inducing them by application of external hormone. After anesthetized with chloral hydrate, female mice were subjected to the steps of ectomizing bilateral ovaries by dorsal approach, ligating uterine tube residue end, and suturing skin, followed by recuperating for one week. The induction by application of hormone was conducted by reference to the literature (Masayoshi Nomura, et al, Physiology & Behavior 91 (2007) 223-228), comprising the steps of subcutaneously injecting estradiol benzoate (30 μg per mouse, is) at 48 h prior to use, and subcutaneously injecting progesterone (500 μg per mouse, is) at 4 h prior to use, to thereby obtain estral female mice.
Estral female mice were put in a ratio of 2:1 to male mice inside a mating box in which male mice were placed. They were trained for consecutive 5 days, 12 min each day. When the mating reaction of male mice became stable, the mice were grouped with the consideration that the bestriding time in each group of mice was substantially the same, while discarding the mice that had relatively weak reaction and no reaction.
In darkness, ethological test was carried out in the rearing cage of male mice. Estral female mice and male mice were kept in a ratio of 2:1 inside the same box for 12 min, during which period the bestriding time and mating frequency of the male mice were observed.
All of the values were expressed by using mean value and standard error (M±SEM), the analytic method used was one-way analysis of variance (ANOVA), and the statistic results were expressed by double star method, i.e., *<0.05, **<0.01.

testosterone in serum = test: Content of testosterone in serum of male mice by radioimmune assay after 20 days of oral administration; assay type: in vivo
Description: After oral administration of ginsenoside Rg1 for 20 days, the content of testosterone in serum of male mice was tested by radioimmune assay.

corpus cavernosum = test: NO release and cGMP content in corpus cavernosum of Newland white rabbit; assay type: in vivo
Description: 1.2.1 Influence of Ginsenoside Rg1 on No Release and cGMP Content in Corpus Cavernosum of Newland White Rabbit, as Shown in Table 4
Ginsenoside Rg1 (10 mg/kg) could markedly increase cGMP content in corpus cavernosum as compared with the control group. *P<0.05 vs the control group.

PDE5 = PDE5 (Homo sapiens, UniProt O76074); test: Inhibition effect on PDE5 (cGMP degradation, radioimmune autograph technique); assay type: biochemical
healthy men aged 30-50 = test: Improving sexual function of men, study in volunteers; assay type: in vivo, human; settings: 100-200 mg/d
Text: The effect of ginsenoside Rg1 on improving sexual function of men had been studied in a few of volunteers (healthy men aged 30-50).

[1] = test system: sperms in tail of epididymis; test: Gossypol aspermatogenesis model: quality of sperms from tail of epididymis by CASA; assay type: in vivo,  male mice; settings: 14th day
NO in testis tissue = test: NO content in testis tissue of mice, gossypol model (NO kit); assay type: in vivo
Text: There was no difference between low-dose group and high-dose group. […] The values were expressed as mean value±SD. **P<0.01 vs. model group, n=10.

T, FSH and LH in serum = test: Hormones (T, FSH, LH) content in serum of mice, gossypol model, radioimmune assay; assay type: in vivo
Description: The test was conducted by radioimmune assay, with the use of a kit as purchased from China North Institute of Biological Technology.

sperms of senile mice = test: Quality of sperms in senile mice by CASA; assay type: in vivo, Kunming mice; settings: senile mice aged 12 months, 5 mg/kg oral once every day, two weeks
Description: In the test, Kunming mice aged 12 months were used. Ginsenoside Rg1 was orally administered at a dose of 5 mg/kg, once every day, for two weeks.
However, the two groups had no difference in terms of the percentage of motility sperms and the percentage of A+B grade. […] The values were expressed as mean value±SD. **P<0.01 vs. the group of senile mice, n=4.

[2] = test system: sperms of cold stress mice; test: Quality of sperms in mice in cold stress model by CASA; assay type: in vivo, Kunming mice; settings: 14 days
Description: In the test, Kunming mice were used to establish a stress model. The mice were placed in an environment of 4° C. for 8 hours every day, each being kept in a single cage, with fasting and without water, for 14 days, to thereby establish a cold stress model. Ginsenoside Rg1 was administered at two different doses, i.e., 5 mg/kg and 10 mg/kg. Every day, the mice orally took the drug 1 hour before exposure in the cold environment.

SMILES: CC(C)=CCC[C@](C)(O[C@@H]1O[C@H](CO)[C@@H](O)[C@H](O)[C@H]1O)[C@H]1CC[C@]2(C)[C@@H]1[C@H](O)C[C@@H]1[C@@]3(C)CC[C@H](O)C(C)(C)[C@@H]3[C@@H](O[C@@H]3O[C@H](CO)[C@@H](O)[C@H](O)[C@H]3O)C[C@]12C [Rg1, ginsenoside Rg1]
- bestriding time of mice (male mice; 5 mg/kg, 1st day): 3.1 ± 4.3 min
- mating frequency of mice (male mice; 5 mg/kg, 1st day, 12 min observation): 15.4 ± 6.4
- bestriding time of mice (male mice; 5 mg/kg, 4th day): 2.9 ± 3.4 min
- mating frequency of mice (male mice; 5 mg/kg, 4th day): 18.7 ± 4.2
- bestriding time of mice (male mice; 5 mg/kg, 8th day): 3.9 ± 3.1 min
- mating frequency of mice (male mice; 5 mg/kg, 8th day): 25.6 ± 5.2
- bestriding time of mice (male mice; 5 mg/kg, 12th day): 7.6 ± 4.1 min
- mating frequency of mice (male mice; 5 mg/kg, 12th day): 32.8 ± 6.6
- bestriding time of mice (male mice; 5 mg/kg, 14th day): 6.9 ± 3.5 min
- mating frequency of mice (male mice; 5 mg/kg, 14th day): 29.3 ± 7.0
- bestriding time of mice (male mice; 5 mg/kg, 16th day): 8.6 ± 2.8 min
- mating frequency of mice (male mice; 5 mg/kg, 16th day): 42.1 ± 10.1
- bestriding time of mice (male mice; 5 mg/kg, 18th day): 9.4 ± 3.7* min
- mating frequency of mice (male mice; 5 mg/kg, 18th day): 43.7 ± 8.7*
- bestriding time of mice (male mice; 5 mg/kg, 20th day): 9.5 ± 3.4* min
- mating frequency of mice (male mice; 5 mg/kg, 20th day): 43.3 ± 7.8*
- bestriding time of mice (male mice; 10 mg/kg, 1st day): 3.3 ± 2.3 min
- mating frequency of mice (male mice; 10 mg/kg, 1st day, 12 min observation): 13.8 ± 3.4
- bestriding time of mice (male mice; 10 mg/kg, 4th day): 3.5 ± 3.1 min
- mating frequency of mice (male mice; 10 mg/kg, 4th day): 20.1 ± 4.8
- bestriding time of mice (male mice; 10 mg/kg, 8th day): 4.2 ± 3.6 min
- mating frequency of mice (male mice; 10 mg/kg, 8th day): 28.3 ± 5.6
- bestriding time of mice (male mice; 10 mg/kg, 12th day): 8.6 ± 4.3 min
- mating frequency of mice (male mice; 10 mg/kg, 12th day): 25.3 ± 7.1
- bestriding time of mice (male mice; 10 mg/kg, 14th day): 7.9 ± 3.7 min
- mating frequency of mice (male mice; 10 mg/kg, 14th day): 33.3 ± 6.6
- bestriding time of mice (male mice; 10 mg/kg, 16th day): 9.2 ± 3.6 min
- mating frequency of mice (male mice; 10 mg/kg, 16th day): 37.9 ± 12.7
- bestriding time of mice (male mice; 10 mg/kg, 18th day): 9.3 ± 3.6* min
- mating frequency of mice (male mice; 10 mg/kg, 18th day): 45.1 ± 10.8*
- bestriding time of mice (male mice; 10 mg/kg, 20th day): 9.8 ± 3.8* min
- mating frequency of mice (male mice; 10 mg/kg, 20th day): 44.2 ± 9.4*
- content of testosterone in serum of mice (testosterone in serum; 2.5 mg/kg oral): 5.11 pmol/mL
- content of testosterone in serum of mice (testosterone in serum; 5.0 mg/kg oral): 5.18 pmol/mL
- content of testosterone in serum of mice (testosterone in serum; 10.0 mg/kg oral): 7.90* pmol · ml^−1
- NO release in corpus cavernosum (corpus cavernosum; 2.5 mg/kg): 27.97 ± 6.90 μmol/g protein
- cGMP content in corpus cavernosum (corpus cavernosum; 2.5 mg/kg): 87.40 ± 42.86 pmol/g
- NO release in corpus cavernosum (corpus cavernosum; 5.0 mg/kg): 28.43 ± 6.04* μmol/g protein
- cGMP content in corpus cavernosum (corpus cavernosum; 5.0 mg/kg): 98.10 ± 48.40 pmol/g
- NO release in corpus cavernosum (corpus cavernosum; 10.0 mg/kg): 30.35 ± 6.70* μmol/g protein
- cGMP content in corpus cavernosum (corpus cavernosum; 10.0 mg/kg): 102.73 ± 50.80* pmol/g
- IC50 (PDE5): 4.34 nM
- inhibition at 0.0025 µM (PDE5; inhibitor 2.5 nmol/l, read-out: Inhibition rate on PDE5): 46.7%
- inhibition at 0.005 µM (PDE5; inhibitor 5.0 nmol/l, read-out: Inhibition rate on PDE5): 40%
- inhibition at 0.01 µM (PDE5; inhibitor 10.0 nmol/l, read-out: Inhibition rate on PDE5): 63.4%
- inhibition at 0.04 µM (PDE5; inhibitor 40.0 nmol/l, read-out: Inhibition rate on PDE5): 100%
- inhibition at 0.08 µM (PDE5; inhibitor 80.0 nmol/l, read-out: Inhibition rate on PDE5): 100%
- side effects in volunteers (healthy men aged 30-50): except for dry mouth, no significant side effects occurred
- Number of sperms ([1]; 5 mg/kg every day + gossypol 50 mg/kg every other day): 170 ± 36**^# 10^6 · ml−1
- Motility of sperms (A + B) ([1]; 5 mg/kg every day + gossypol): 28 ± 6%
- Viability rate of sperms ([1]; 5 mg/kg every day + gossypol): 50 ± 10 %
- Number of sperms ([1]; 10 mg/kg every day + gossypol 50 mg/kg every other day): 225 ± 36**^## 10^6 · ml−1
- Motility of sperms (A + B) ([1]; 10 mg/kg every day + gossypol): 45 ± 8 %
- Viability rate of sperms ([1]; 10 mg/kg every day + gossypol): 61 ± 9 %
- NO concentration in testis tissue (NO in testis tissue; 5 mg/kg): 16 ± 9 μmol/g protein
- NO concentration in testis tissue (NO in testis tissue; 10 mg/kg): 10 ± 7** μmol/g protein
- FSH in serum (T, FSH and LH in serum; 5 mg/kg): 5.7 ± 2.0 ng/mL
- LH in serum (T, FSH and LH in serum; 5 mg/kg): 2.9 ± 1.2 ng/mL
- T in serum (T, FSH and LH in serum; 5 mg/kg): 0.8 ± 0.3 ng/mL
- FSH in serum (T, FSH and LH in serum; 10 mg/kg): 4.3 ± 1.9 ng/mL
- LH in serum (T, FSH and LH in serum; 10 mg/kg): 2.1 ± 0.8 ng/mL
- T in serum (T, FSH and LH in serum; 10 mg/kg): 1.0 ± 0.5 ng/mL
- A + B grade (sperms of senile mice): 18.27 ± 8.37%
- Motility sperms (sperms of senile mice): 40 ± 6.56%
- Sperm count (sperms of senile mice): 133.23 ± 15.99** ×10^6
- A + B grade ([2]; 5 mg/kg oral): 39.26 ± 8.96 %
- Motility sperm ([2]; 5 mg/kg oral): 54.47 ± 8.14 %
- Sperm count ([2]; 5 mg/kg oral): 438.70 ± 94.19 ×10^6
- A + B grade ([2]; 10 mg/kg oral): 32.89 ± 13.42%
- Motility sperm ([2]; 10 mg/kg oral): 44.97 ± 12.07%
- Sperm count ([2]; 10 mg/kg oral): 377.17 ± 42.93 ×10^6
